From patent publication US12127557B2
Like-named read-outs stand apart in the source and are kept apart here.

Assays:
Pythium ultimum = assay type: cell-based; conditions: no enzyme, 2 days
Fusarium graminearum = assay type: cell-based; conditions: no enzyme, 5 days

Substance: mancozeb
- Reduction in P. ultimum growth (−) enzyme (Pythium ultimum; mancozeb 0.5 mg/l): 2% f
- Reduction in P. ultimum growth (−) enzyme (Pythium ultimum; mancozeb 2 mg/l): 10% e
- Reduction in P. ultimum growth (−) enzyme (Pythium ultimum; mancozeb 5 mg/l): 16% e
- Reduction in P. ultimum growth (−) enzyme (Pythium ultimum; mancozeb 10 mg/l): 23% d
- Reduction in F. graminearum growth (−) enzyme (Fusarium graminearum; mancozeb 0.5 mg/l): 6% cd
- Reduction in F. graminearum growth (−) enzyme (Fusarium graminearum; mancozeb 2 mg/l): 1% d
- Reduction in F. graminearum growth (−) enzyme (Fusarium graminearum; mancozeb 5 mg/l): 17% cd
- Reduction in F. graminearum growth (−) enzyme (Fusarium graminearum; mancozeb 10 mg/l): 26% bcd
